According to PubChem BioAssay AID463251 (The Scripps Research Institute Molecular Screening Center, 2010):
Active and inactive are the calls of the source. The limit is not given here; nearly all actives have IC50 up to about 7.3 µM.

Molecular target: Neuropeptides B/W receptor type 1 (Homo sapiens) (UniProt P48145)
Assay: human NPBW1 receptor blockade, IC50 – cell-based, fluorescence, dose response, late-stage follow-up (AID 463251)
Settings: GPR7-expressing cells, fluorescence read-out, antagonist mode

Chain of Neuropeptides B/W receptor type 1 (Homo sapiens) (P48145 whole entry, looked up): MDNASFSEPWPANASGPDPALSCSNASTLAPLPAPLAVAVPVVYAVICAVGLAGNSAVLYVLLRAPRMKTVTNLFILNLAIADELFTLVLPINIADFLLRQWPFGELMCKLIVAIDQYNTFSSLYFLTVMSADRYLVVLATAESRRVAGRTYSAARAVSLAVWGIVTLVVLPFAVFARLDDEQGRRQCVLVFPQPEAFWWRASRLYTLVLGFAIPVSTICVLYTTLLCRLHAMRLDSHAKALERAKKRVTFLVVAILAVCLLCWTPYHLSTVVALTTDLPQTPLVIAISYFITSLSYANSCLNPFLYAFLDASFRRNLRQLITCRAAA

Row | IC50 | inhibition (at 20 µM (top of the series)) | SMILES
1 | 2.7 µM | – | COC(=O)c1cnn(-c2ccc(C(C)C)cc2)c(=O)c1Oc1ccc(OC)cc1
2 | 1.2 µM | – | CCOC(=O)c1ccc(-n2ncc(Cl)c(Oc3ccc(OC)cc3)c2=O)cc1
3 | 1.3 µM | – | COc1ccc(Oc2c(Cl)cnn(-c3cccc(C)c3C)c2=O)cc1
5 | 2.2 µM | – | COc1ccc(Oc2c(Cl)cnn(-c3ccc(C)cc3)c2=O)cc1
6 | 2.3 µM | – | Cc1ccc(-n2ncc(Cl)c(Oc3ccc(CO)cc3)c2=O)cc1
7 | 1.7 µM | – | COc1ccc(Oc2c(Cl)cnn(Cc3ccc(C)cc3)c2=O)cc1
8 | 1.4 µM | – | COc1ccc(Oc2c(Cl)cnn(-c3cc(C)ccc3C)c2=O)cc1
9 | 6.2 µM | – | COc1ccc(Oc2c(C=O)cnn(-c3ccc(C(C)C)cc3)c2=O)cc1
10 | 6.2 µM | – | COc1ccc(Oc2c(C3CC3)cnn(-c3ccc(C)cc3)c2=O)cc1
11 | 0.724 µM | – | CCOc1ccc(Oc2c(Br)cnn(-c3ccc(C(C)C)cc3)c2=O)cc1
12 | – | inactive | O=C(C1CCCCN1Cc1ccccc1)N1CCN(c2ccc([N+](=O)[O-])cc2)CC1 (configuration not stated)
13 | 2.4 µM | – | C=Cc1cnn(-c2ccc(C(C)C)cc2)c(=O)c1Oc1ccc(OC)cc1
14 | 7.5 µM | – | COc1ccc(Oc2c(C)cnn(-c3ccc(C(C)C)cc3)c2=O)cc1
15 | 5.6 µM | – | COc1ccc(Oc2c(CO)cnn(-c3ccc(C(C)C)cc3)c2=O)cc1
16 | inactive | – | CC(C)c1ccc(-n2ncc(Cl)c(Oc3ccc(OC(F)(F)F)cc3)c2=O)cc1
17 | 4.2 µM | – | COc1ccc(Oc2c(C#N)cnn(-c3ccc(C(C)C)cc3)c2=O)cc1
